In experiment [1] the target is T1, Human CCR5 (Homo sapiens, UniProt P51681).
T1 construct: expressed in transfected cells
Nature of the experiment: CCR5 functional assay - Ca2+ mobilization in CHO K1 CCR5 transfectants. Type of experiment: cell-based. On the procedure: b) CCR5 Functional Assay—Ca^2+ Mobilization Human CCR5 is used to generate stable transfectants in CHO K1 cells. These CCR5 transfectants are used for assessing Ca^2+ mobilization in response to stimulation by the CCR5 ligands MIP-1α, MIP-1β, HCC-1(9-74) or RANTES. For the assay the cells are loaded with a Ca^2+-sensitive fluorochrome (Fluo3 or Fluo4). Ligand concentrations between 0.01-100 nM are used to induce Ca^2+ mobilization which is monitored in a fluorometer with appropriate settings. To assess the activity of the compounds to be tested, a baseline fluorescence reading is taken after which the compounds at the desired concentration are added to the cells and fluorescence is further recorded for a certain time to assess whether compounds show agonistic effects. Next the agonist is added to the mixture and fluorescence monitored. The inhibition of Ca^2+ flux in the presence of the compounds to be tested is calculated from the inhibition of maximal fluorescence induced by the agonist. IC50 values are calculated from dose-response curves obtained with the compounds.
(A change in cytosolic calcium serves as a functional read-out for many receptors and channels.)

Experiment [2] has as its target T1, Human CCR5. As to the kind of experiment: CCR5 membrane binding assay ([I-125]MIP-1α radioligand, membranes of CHO K1 transfectants). The following applies: membranes of CHO K1 cells transfected with human CCR5; ligand 125-I MIP-1α. How it is done: a) CCR5 Membrane Binding Assay
Human CCR5 is used to generate stable transfectants in CHO K1 cells. Membranes prepared from these CCR5 transfectants are used in a radioligand binding assay using 125-I MIP-1α as a ligand and the compounds of formula I are tested for inhibitory activity.

The term IC50 denotes the concentration at which inhibition is half-maximal.

T1 sequence (P51681 whole entry): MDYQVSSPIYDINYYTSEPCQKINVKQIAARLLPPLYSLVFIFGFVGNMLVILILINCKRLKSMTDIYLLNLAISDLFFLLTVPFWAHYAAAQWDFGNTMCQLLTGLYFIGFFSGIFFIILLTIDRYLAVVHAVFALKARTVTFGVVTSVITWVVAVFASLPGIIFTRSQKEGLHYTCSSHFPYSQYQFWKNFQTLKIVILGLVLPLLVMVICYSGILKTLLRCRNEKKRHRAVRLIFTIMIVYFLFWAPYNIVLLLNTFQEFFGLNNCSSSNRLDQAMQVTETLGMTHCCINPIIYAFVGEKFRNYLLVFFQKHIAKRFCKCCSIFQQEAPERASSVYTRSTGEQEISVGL

As for `Cc1cc[n+]([O-])c(C)c1C(=O)N1CCC(C)(N2CCC(N(c3ccccc3)c3ccccn3)CC2)CC1` [Example 12, (2,4-Dimethyl-1-oxy-pyridin-3-yl)-[4′-methyl-4-(phenyl-pyridin-2-yl-amino)-[1,4′]bipiperidinyl-1′-yl]methanone], the IC50 against Human CCR5 [1] was 29 nM.

Regarding `Cc1cc[n+]([O-])c(C)c1C(=O)N1CCC(C)(N2CCC(N(Cc3ccsc3)c3ccccc3)CC2)CC1` [Example 36, (2,4-Dimethyl-1-oxy-pyridin-3-yl)-[4′-methyl-4-(phenyl-thiophen-3-ylmethyl-amino)-[1,4′]bipiperidinyl-1′-yl]-methanone], the IC50 on Human CCR5 [1] (CHO K1 CCR5 transfectants, Fluo3 or Fluo4, agonist MIP-1α, MIP-1β, HCC-1(9-74) or RANTES, read-out: IC50, inhibition of Ca2+ flux) worked out at 8 nM.

On Human CCR5 [2], `Cc1nc(CN(c2ccc(Cl)cc2)C2CCN(C3(C)CCN(C(=O)c4c(C)cccc4C)CC3)CC2)cs1` [Example 32] returned an IC50 of 0.5 nM.

The values are drawn from patent US7399771B2, “Piperidine derivatives as CCR5 inhibitors” (Novartis AG, priority 2002, dated 2008).
